Data on four molecules can be found in patent US5143920A, “Substituted 4-aminoquinoline derivatives as gastric secretion inhibitors” (SmithKline Beckman Intercredit B.V., priority 1988, dated 1992).

Molecules are shown by their SMILES.

The assay deals with T1, H^+ K^+ ATPase (Sus scrofa, UniProt P19156).
T1 construct: Lyophilised gastric vesicles were prepared from pig fundic mucosa; from tissue; host or cells: pig fundic mucosa (lyophilised gastric vesicles)
T1 sequence (P19156 2-1034 limits assumed): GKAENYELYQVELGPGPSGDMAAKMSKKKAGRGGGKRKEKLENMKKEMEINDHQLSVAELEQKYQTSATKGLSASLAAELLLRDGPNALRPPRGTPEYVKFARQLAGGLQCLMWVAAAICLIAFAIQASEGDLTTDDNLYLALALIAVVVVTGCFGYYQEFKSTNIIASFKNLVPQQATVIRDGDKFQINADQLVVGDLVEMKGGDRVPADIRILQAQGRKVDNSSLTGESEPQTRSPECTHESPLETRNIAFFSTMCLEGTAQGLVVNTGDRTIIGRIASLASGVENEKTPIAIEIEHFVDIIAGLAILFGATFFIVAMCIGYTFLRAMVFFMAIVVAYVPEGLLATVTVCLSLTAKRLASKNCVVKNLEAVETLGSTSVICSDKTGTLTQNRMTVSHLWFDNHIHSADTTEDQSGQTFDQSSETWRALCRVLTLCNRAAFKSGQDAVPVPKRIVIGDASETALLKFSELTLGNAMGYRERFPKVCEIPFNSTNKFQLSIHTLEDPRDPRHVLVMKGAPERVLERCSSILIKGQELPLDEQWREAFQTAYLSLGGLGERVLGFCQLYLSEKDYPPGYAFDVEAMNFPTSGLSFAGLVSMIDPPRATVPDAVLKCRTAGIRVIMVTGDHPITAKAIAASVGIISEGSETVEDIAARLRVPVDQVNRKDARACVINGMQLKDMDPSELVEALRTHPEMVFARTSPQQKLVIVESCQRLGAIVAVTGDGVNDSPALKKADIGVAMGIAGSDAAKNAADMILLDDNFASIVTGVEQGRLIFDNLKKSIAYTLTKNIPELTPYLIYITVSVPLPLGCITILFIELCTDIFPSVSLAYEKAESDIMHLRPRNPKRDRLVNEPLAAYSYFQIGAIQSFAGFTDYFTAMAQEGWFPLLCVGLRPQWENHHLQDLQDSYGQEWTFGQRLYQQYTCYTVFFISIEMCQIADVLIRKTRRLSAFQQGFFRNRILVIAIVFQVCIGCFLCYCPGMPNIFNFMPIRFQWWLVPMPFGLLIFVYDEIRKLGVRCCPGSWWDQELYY
T1 sequence (P18434 whole entry partner): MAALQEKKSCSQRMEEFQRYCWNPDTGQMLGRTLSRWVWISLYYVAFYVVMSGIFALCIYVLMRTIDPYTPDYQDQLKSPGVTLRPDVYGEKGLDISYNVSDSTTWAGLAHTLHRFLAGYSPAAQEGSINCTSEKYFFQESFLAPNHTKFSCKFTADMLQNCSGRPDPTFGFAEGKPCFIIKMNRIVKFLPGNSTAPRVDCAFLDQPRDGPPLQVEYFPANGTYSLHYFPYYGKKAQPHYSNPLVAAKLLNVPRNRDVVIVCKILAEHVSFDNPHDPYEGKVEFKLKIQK
Put plainly: K^+ -stimulated ATPase activity in lyophilised gastric vesicles (H^+ K^+ ATPase Activity). The assay is classed as biochemical. Conditions: inhibition of K^+ -stimulated ATPase activity, lyophilised gastric vesicles from pig fundic mucosa, 37° C., pH 7.0, 1 mM KCl, 2 mM Na2 ATP, 30 minutes. As for the experimental part: The effects of a single high concentration ([…]) of a compound of structure (I) on K^+ -stimulated ATPase activity in lyophilised gastric vesicles was determined. Preferred compounds of structure (I) were also tested over a range of concentrations to determine IC50 values.
Lyophilised gastric vesicles were prepared from pig fundic mucosa after the method of Keeling et. al. (Biochem. Pharmacol, 34, 2967, 1985).
K^+ -stimulated ATPAse activity was determined at 37° C. in the presence of the following: 10 mM Pipes/Tris buffer pH 7.0, 2 mM MgSO4, 1 mM KCl, 2 mM Na2 ATP and […] lyophilised gastric vesicles. After incubation for 30 minutes, the inorganic phosphate hydrolysed from ATP was determined by the method of Yoda and Hokin (Biochem. Biophys, Res. Commun. 40, 880, 1970).
Compounds of structure (I) were dissolved in dimethylsulphoxide which up to the highest concentration used had no effect on K^+ -stimulated ATPase activity.
The effect of the highest concentration of each compound of structure (I) on the recovery of a standard amount of inorganic phosphate was also determined.
What is called IC50 is the concentration that inhibits the measured activity by half. `CCCC(=O)c1cnc2c(OC)cc(O)cc2c1Nc1ccc(O)cc1C` [Compound 17, 3-butyryl-4-(4-hydroxy-2-methylphenylamino)-6-hydroxy-8-methoxyquinoline] yielded an IC50 of 1300 nM.

The molecule `COc1cccc2c(Nc3ccc(O)cc3C)c(C(=O)C(C)C)cnc12` [Compound 12, 3-isobutyryl-4-(4-hydroxy-2-methylphenylamino)-8-methoxyquinoline] came in with an IC50 of 160 nM.

With `CCOC(=O)c1cnc2c(OC)cccc2c1Nc1ccc(O)cc1C` [Compound 9, Ethyl 8-methoxy-4-(4-hydroxy-2-methylphenylamino)-quinoline-3-carboxylate], the IC50 is 80 nM.

`CCCC(=O)c1cnc2ccc(O)cc2c1Nc1ccc(O)cc1C` [Compound 16, 3-butyryl-4-(4-hydroxy-2-methylphenylamino)-6-hydroxyquinoline] showed an IC50 of 70 nM.
